Data: patent publication US6737383B1, “Herbicidal oxadiazolidines” (priority 1999, dated 2004)

What was measured:
Italian ryegrass = assay: Test E Italian ryegrass; format: in vivo, Lolium multiflorum; conditions: Preemergence; for I. Ryegrass plant response rating (0 to 100 scale): Rate 250 g/ha
blackgrass = assay: Test E blackgrass; format: in vivo, Alopecurus myosuroides; conditions: Preemergence; for Blackgrass plant response rating (0 to 100 scale): Rate 250 g/ha
morningglory = assay: Test B pre/postemergence morningglory; format: in vivo, Ipomoea hederacea
Procedure, shortened: (§1)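 Response is a visual 0-to-10 score relative to untreated plants, where 0 means no effect and 10 means complete control, taken twelve to sixteen days after application. Treatments went onto soil at planting and onto foliage of 1- to 4-leaf plants, using a surfactant-containing non-phytotoxic solvent.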

wild oat = assay: Test E wild oat; format: in vivo, Avena fatua; conditions: Preemergence; for Wild oat plant response rating (0 to 100 scale): Rate 250 g/ha
winter barley = assay: Test E winter barley; format: in vivo, Hordeum vulgare; conditions: Preemergence; for Barley (winter) plant response rating (0 to 100 scale): Rate 250 g/ha
pigweed = assay: Test B pre/postemergence pigweed; format: in vivo, Amaranthus retroflexus
Procedure, shortened: as §1

winter wheat [1] = assay: Test E winter wheat; format: in vivo, Triticum aestivum; conditions: Preemergence; for Wheat (winter) plant response rating (0 to 100 scale): Rate 250 g/ha
green foxtail = assay: Test E green foxtail; format: in vivo, Setaria viridis; conditions: Preemergence; for Green foxtail plant response rating (0 to 100 scale): Rate 250 g/ha
soybean = assay: Test B pre/postemergence soybean; format: in vivo, Glycine max
Procedure, shortened: as §1

winter wheat [2] = assay: Test E winter wheat; format: in vivo, Triticum aestivum; conditions: Postemergence; for Wheat (winter) plant response rating: Rate 250 g/ha
Procedure, shortened: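 Postemergence: spray at 1–4 leaf stage, soil 60:40 sandy loam:potting mix; solvent + surfactant formulation; greenhouse 21–28 d; visual injury vs untreated controls.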

cocklebur = assay: Test B pre/postemergence cocklebur; format: in vivo, Xanthium strumarium
Procedure, shortened: as §1

[3] = Rate 125 g/ha, 0 to 100 scale (0 no effect, 100 complete control)
[4] = Rate 500 g/ha, 0 to 100 scale where 0 is no effect and 100 is complete control
[5] = Preemergence, Rate 62 g/ha, scale of 0 to 10 where 0 is no effect and 10 is complete control
[6] = Preemergence, Rate 250 g/ha, scale of 0 to 10 where 0 is no effect and 10 is complete control
[7] = Preemergence, Rate 500 g/ha, scale of 0 to 10 where 0 is no effect and 10 is complete control
[8] = Rate 62 g/ha, Postemergence, scale of 0 to 10 where 0 is no effect and 10 is complete control
[9] = Rate 125 g/ha, Postemergence, scale 0 to 10
[10] = Rate 125 g/ha, Preemergence, scale of 0 to 10 where 0 is no effect and 10 is complete control
[11] = Rate 500 g/ha, Postemergence, scale 0 to 10, 0 no effect, 10 complete control
[12] = 0 to 100 scale where 0 is no effect and 100 is complete control
[13] = Rate 500 g/ha, 0 to 100 scale, 0 is no effect, 100 is complete control
[14] = Rate 1000 g/ha, 0 to 100 scale, 0 no effect, 100 complete control

## CC(C)N(C(=O)n1oc(=O)n(CCC2OCCO2)c1=O)c1ccc(F)cc1 [Compound 219]
Italian ryegrass; [3]
  Plant response rating, I. Ryegrass: 30
Italian ryegrass
  I. Ryegrass plant response rating (0 to 100 scale): 55
Italian ryegrass; [4]
  Plant response rating, I. Ryegrass: 70
blackgrass; [3]
  Plant response rating, Blackgrass: 0
blackgrass
  Blackgrass plant response rating (0 to 100 scale): 20
blackgrass; [4]
  Plant response rating, Blackgrass: 70
morningglory; [5]
  Morningglory plant response rating: 0
morningglory; [6]
  Morningglory plant response rating: 0
morningglory; [7]
  Plant response rating, Morningglory: 1
morningglory; [8]
  Morningglory plant response rating: 6
morningglory; [9]
  Morningglory plant response rating: 6
morningglory; [10]
  Morningglory plant response rating: 0
morningglory; Rate 250 g/ha, Postemergence
  Plant response rating (0 to 10; 0 is no effect, 10 is complete control), Morningglory: 7
morningglory; [11]
  Morningglory plant response rating: 7
Wild oat; [3]
  Plant response rating, Wild oat: 30
Wild oat
  Wild oat plant response rating (0 to 100 scale): 50
Wild oat; [4]
  Plant response rating, Wild oat: 60
Winter barley; [3]
  Plant response rating, Barley (winter): 20
Winter barley
  Barley (winter) plant response rating (0 to 100 scale): 30
Winter barley; [4]
  Plant response rating, Barley (winter): 70
pigweed; [5]
  Redroot pigweed plant response rating: 0
pigweed; [6]
  Redroot pigweed plant response rating: 9
pigweed; [7]
  Plant response rating, Redroot pigweed: 10
pigweed; [8]
  Redroot pigweed plant response rating: 5
pigweed; [9]
  Redroot pigweed plant response rating: 7
pigweed; [10]
  Redroot pigweed plant response rating: 4
pigweed; Rate 250 g/ha, Postemergence
  Plant response rating (0 to 10; 0 is no effect, 10 is complete control), Redroot pigweed: 8
pigweed; [11]
  Redroot pigweed plant response rating: 8
Winter wheat [1]; [3]
  Plant response rating, Wheat (winter): 35
Winter wheat [1]
  Wheat (winter) plant response rating (0 to 100 scale): 60
Winter wheat [1]; [4]
  Plant response rating, Wheat (winter): 60
Green foxtail; [3]
  Plant response rating, Green foxtail: 65
Green foxtail
  Green foxtail plant response rating (0 to 100 scale): 60
Green foxtail; [4]
  Plant response rating, Green foxtail: 70
soybean; [5]
  Soybean plant response rating: 0
soybean; [6]
  Soybean plant response rating: 0
soybean; [7]
  Plant response rating, Soybean: 0
soybean; [8]
  Soybean plant response rating: 5
soybean; [9]
  Soybean plant response rating: 5
soybean; [10]
  Soybean plant response rating: 0
soybean; Rate 250 g/ha, Postemergence
  Plant response rating (0 to 10; 0 is no effect, 10 is complete control), Soybean: 7
soybean; [11]
  Soybean plant response rating: 7
Winter wheat [2]; Rate 125 g/ha, 0 to 100 scale, 0 is no effect, 100 is complete control
  Plant response rating, Wheat (winter): 20
Winter wheat [2]; [12]
  Wheat (winter) plant response rating: 50
Winter wheat [2]; [13]
  Plant response rating, Wheat (winter): 60
cocklebur; [5]
  Cocklebur plant response rating: 0
cocklebur; [6]
  Cocklebur plant response rating: 0
cocklebur; [7]
  Plant response rating, Cocklebur: 0
cocklebur; [8]
  Cocklebur plant response rating: 1
cocklebur; [9]
  Cocklebur plant response rating: 1
cocklebur; [10]
  Cocklebur plant response rating: 0
cocklebur; Rate 250 g/ha, Postemergence
  Plant response rating (0 to 10; 0 is no effect, 10 is complete control), Cocklebur: 4
cocklebur; [11]
  Cocklebur plant response rating: 4

## Cc1nc(C)c(Cn2c(=O)on(C(=O)N(c3ccc(F)cc3F)C(C)C)c2=O)s1 [Compound 233]
Italian ryegrass
  I. Ryegrass plant response rating (0 to 100 scale): 40
Italian ryegrass; [4]
  Plant response rating, I. Ryegrass: 50
Italian ryegrass; [14]
  Plant response rating, I. Ryegrass: 60
blackgrass
  Blackgrass plant response rating (0 to 100 scale): 50
blackgrass; [4]
  Plant response rating, Blackgrass: 60
blackgrass; [14]
  Plant response rating, Blackgrass: 85
morningglory; [5]
  Morningglory plant response rating: 0
morningglory; [6]
  Morningglory plant response rating: 0
morningglory; [7]
  Plant response rating, Morningglory: 2
morningglory; [8]
  Morningglory plant response rating: 3
morningglory; [9]
  Morningglory plant response rating: 3
morningglory; [10]
  Morningglory plant response rating: 0
morningglory; Rate 250 g/ha, Postemergence
  Plant response rating (0 to 10; 0 is no effect, 10 is complete control), Morningglory: 3
morningglory; [11]
  Morningglory plant response rating: 8
Wild oat
  Wild oat plant response rating (0 to 100 scale): 55
Wild oat; [4]
  Plant response rating, Wild oat: 60
Wild oat; [14]
  Plant response rating, Wild oat: 60
Winter barley
  Barley (winter) plant response rating (0 to 100 scale): 30
Winter barley; [4]
  Plant response rating, Barley (winter): 50
Winter barley; [14]
  Plant response rating, Barley (winter): 60
pigweed; [5]
  Redroot pigweed plant response rating: 3
pigweed; [6]
  Redroot pigweed plant response rating: 7
pigweed; [7]
  Plant response rating, Redroot pigweed: 8
pigweed; [8]
  Redroot pigweed plant response rating: 0
pigweed; [9]
  Redroot pigweed plant response rating: 0
pigweed; [10]
  Redroot pigweed plant response rating: 6
pigweed; Rate 250 g/ha, Postemergence
  Plant response rating (0 to 10; 0 is no effect, 10 is complete control), Redroot pigweed: 2
pigweed; [11]
  Redroot pigweed plant response rating: 4
Winter wheat [1]
  Wheat (winter) plant response rating (0 to 100 scale): 50
Winter wheat [1]; [4]
  Plant response rating, Wheat (winter): 50
Winter wheat [1]; [14]
  Plant response rating, Wheat (winter): 60
Green foxtail
  Green foxtail plant response rating (0 to 100 scale): 100
Green foxtail; [4]
  Plant response rating, Green foxtail: 100
Green foxtail; [14]
  Plant response rating, Green foxtail: 100
soybean; [5]
  Soybean plant response rating: 0
soybean; [6]
  Soybean plant response rating: 0
soybean; [7]
  Plant response rating, Soybean: 0
soybean; [8]
  Soybean plant response rating: 3
soybean; [9]
  Soybean plant response rating: 3
soybean; [10]
  Soybean plant response rating: 0
soybean; Rate 250 g/ha, Postemergence
  Plant response rating (0 to 10; 0 is no effect, 10 is complete control), Soybean: 3
soybean; [11]
  Soybean plant response rating: 5
Winter wheat [2]; Rate 1000 g/ha, 0 to 100 scale where 0 is no effect and 100 is complete control
  Plant response rating, Wheat (winter): 60
Winter wheat [2]; [12]
  Wheat (winter) plant response rating: 50
Winter wheat [2]; [13]
  Plant response rating, Wheat (winter): 55
cocklebur; [5]
  Cocklebur plant response rating: 0
cocklebur; [6]
  Cocklebur plant response rating: 0
cocklebur; [7]
  Plant response rating, Cocklebur: 0
cocklebur; [8]
  Cocklebur plant response rating: 0
cocklebur; [9]
  Cocklebur plant response rating: 2
cocklebur; [10]
  Cocklebur plant response rating: 0
cocklebur; Rate 250 g/ha, Postemergence
  Plant response rating (0 to 10; 0 is no effect, 10 is complete control), Cocklebur: 2
cocklebur; [11]
  Cocklebur plant response rating: 2
